Laboratory results as given in PMC3529812 (Journal of immunology (Baltimore, Md. : 1950), 2012).
pEC50: −log10 of the molar value.

Key:
HLA-A2 = HLA-A2 (Homo sapiens, UniProt P04439, D140Y/D185E/D98H/E176V/E277Q/G131W/G231S/I119V/I121R/I166T/I218V/L300P/L318F/N151K/N90K/P208A/P217A/Q86G/Q94H/R138H/R169H/T345S); assay: T2 HLA-A2 stabilization assay; format: cell-based
20S proteasome = 20S proteasome cleavage assay with LC-MS of cleavage products; format: biochemical, human; details: 10 μM lactacystin; substrate 23 mer; compared to uninhibited proteasome reaction

| Structure (SMILES) | pEC50 (HLA-A2) | Effect of lactacystin on generation of p373–382 by proteasome (20S proteasome) |
| --- | --- | --- |
| CC(C)C[C@H](NC(=O)[C@@H](N)CO)C(=O)N[C@@H](C)C(=O)N[C@@H](Cc1ccccc1)C(=O)N[C@@H](CC(C)C)C(=O)N1CCC[C@H]1C(=O)N[C@@H](CCC(=O)O)C(=O)N[C@@H](CO)C(=O)N[C@@H](Cc1ccccc1)C(=O)N[C@@H](CC(=O)O)C(=O)O [p373–382] | 5.74 |  |
| CC(=O)N[C@@H](CSC(=O)[C@]1([C@@H](O)C(C)C)NC(=O)[C@H](C)[C@@H]1O)C(=O)O [lactacystin] |  | not completely blocked |
